{"source": "paper PMC4935942", "about": "“Efficient Inhibition of Hepatitis B Virus Infection by a preS1-binding Peptide” (Scientific Reports, 2016)", "key": {"HBV particles": {"system": "HBV particles", "test": "HBV virus capture assay", "assay_type": "binding, Hepatitis B virus", "details": "1 × 10^6 viruses per well from pooled HBV positive serum; 4 °C for 4 h; HRP-labeled HBsAg antibody, absorbance at 450 nm", "method": "(§1) The N-biotinylated B10 monomer or concatemers (Fig. 1A) (2 μg/well) was applied into the streptavidin-coated wells and incubated for 45 minutes at room temperature. Wells were washed with PBST (0.05% Tween 20 in PBS). […] Excess preS1/2-48^myr-FITC peptides were removed with PBST. Fluorescence intensity was then measured using a VICTOR X multilabel reader (Perkin Elmer, Waltham, MA). In virus capture assays, 1 × 10^6 viruses from pooled HBV positive serum (Ruijin Hospital, Shanghai) were applied per well. After incubation at 4 °C for 4 hours, wells were washed and 100 μl of horseradish peroxidase-labeled HBsAg antibody (Kehua, Shanghai, China) was added and incubated for 1 hour at room temperature. The absorbance at 450 nm was measured."}, "HIV-1": {"system": "HIV-1", "details": "TZM-bl cells; strains B12 and SH1.81, 200 TCID50; 4B10 up to 100 μM; luciferase, 48 h post infection", "protocol": "The infection of two strains of tat-expressing, replication deficient HIV-1, B12 and SH1.81, was tested on TZM-bl cells harboring HIV-1 LTR-luciferase reporter[30]. Envelope proteins of B12 and SH1.81 were derived from HIV-1 B and A/E recombinant subtype, respectively. […] Forty-eight hours post infection, intracellular luciferase activity was measured with a luciferase assay kit (Promega, Madison, WI)."}, "HBV infection of PTH [1]": {"system": "HBV infection of PTH", "test": "Intracellular HBcAg expression in HBV-infected PTH (immunofluorescence)", "assay_type": "cell-based, Hepatitis B virus", "details": "day 12 post-infection", "method": "(§2) All infections were repeated at least twice.\n(§3) PHH at 14 days post infection and PTH at 12 days post infection were washed 3 times with ice-cold PBS and fixed in 3.7% paraformaldehyde in PBS for 15 min at room temperature. Cells were washed, permeabilized with 0.5% Triton X-100 in PBS, washed again and incubated in 1% BSA in PBST for 30 minutes at room temperature. Cells were then stained with a polyclonal rabbit anti-HBcAg (1:700 dilution, Dako, Inc, Carpinteria, CA) overnight at 4 °C in a humidified chamber. After washing, PHH and PTH were incubated with Alexa Fluor 488 goat anti-rabbit IgG (H+L) and Alexa Fluor 546 goat anti-rabbit IgG (H+L) (1:1000 dilution, Life Technologies, USA) for 1 hour at room temperature in dark, respectively. After 3 washes in dark, cells were stained with DAPI for 10 minutes at room temperature. For detection of HBV attached to PMH and HepG2 cells, cells were stained with a mouse monoclonal anti-HBsAg (1:1000 dilution, Dako) followed by Alexa Fluor 488 goat anti-mouse IgG (H+L) (1:1000 dilution, Life Technologies). Cells were examined under a confocal microscope (Leica Biosystems)."}, "PMH": {"system": "PMH", "details": "4B10 0.01 μM, 1 μM and 100 μM, or LA-20; 72 h; CCK-8", "protocol": "(§5) To rule out potential cytotoxicity of the peptides, the viability of cells exposed to 4B10 (0.01 μM, 1 μM and 100 μM) or LA-20 for 72 hours was analyzed.\n(§6) For PTH, cells were cultured in medium containing 4B10 and LA-20 (0.01 μM, 1 μM or 100 μM) and viability measured using cell counting kit-8 (CCK-8) (Dojindo, Japan)."}, "HepG2 cells": {"system": "HepG2 cells", "details": "4B10 0.01 μM, 1 μM and 100 μM, or LA-20; 72 h; CCK-8", "protocol": "as §5, §6"}, "HBV infection of PHH [2]": {"system": "HBV infection of PHH", "test": "HBV infection of primary human hepatocytes", "details": "for pIC50: pooled patient sera (genotypes B and C), MOI 400, day 14 post infection, ELISA, printed with 'about'", "protocol": "(§7) Freshly isolated PTH were seeded into collagen-coated 6-well plates (BD Biosciences, San Jose, CA) and maintained in Hepato-Stim Hepatocyte Defined medium (HDM) (BD Biosciences) at 5 × 10^5 cells per well. Twenty-four hours post-seeding, PTH were infected with concentrated viruses prepared from HepAD38 supernatants (genotype D) at a multiplicity of infection (MOI) of 100 GE per cell. […] After incubation at 37 °C overnight, cells were washed 5 times with PBS and cultivated for 12 days. For HBV infection of PHH, freshly prepared PHH were seeded into collagen-coated wells in supplemented WEM at 5 × 10^5 cells per well. […] PTH and PHH culture media were changed every two days, and hepatitis B surface antigen (HBsAg) and e antigen (HBeAg) in collected supernatants were determined using enzyme linked immunosorbent assay (ELISA) kits (Kehua). All infections were repeated at least twice."}, "[3]": {"system": "primary mouse hepatocytes (PMH)", "test": "Flow cytometry binding of FITC-labelled peptides to PMH", "details": "discussion; Fig. 3A"}, "preS1/2-48^myr": {"system": "preS1/2-48^myr", "test": "preS1/2-48^myr-FITC binding to immobilized N-biotinylated B10 monomer/concatemers", "parameters": "species or system HBV (genotype D)", "details": "N-biotinylated peptide 2 μg/well on streptavidin-coated wells; 1 h at room temperature; fluorescence", "method": "as §1"}, "[4]": {"system": "VSV-G pseudotyped lentivirus", "assay_type": "cell-based"}, "HBV infection of PHH [5]": {"system": "HBV infection of PHH", "test": "Intracellular HBcAg expression in HBV-infected PHH (immunofluorescence)", "assay_type": "cell-based, Hepatitis B virus", "details": "day 14 post-infection", "method": "as §2, §3"}, "HBV attachment to PMH [6]": {"system": "HBV attachment to PMH", "test": "HBV attachment to PMH (real-time PCR)", "assay_type": "cell-based, Hepatitis B virus", "details": "1 × 10^7 GE/well viruses pre-incubated 30 min at 37 °C, 4 h at 37 °C, triplicate, repeated at least three times", "method": "(§4) For HBV attachment assays, viruses in HepAD38 supernatants were precipitated in 10% polyethylene glycol (PEG) 8000 (Sangon) for 16 hours at 4 °C, centrifuged at 7,000 × g for 1 hour at 4 °C and resuspended in DMEM. Viral titers were determined using a real-time PCR kit (Qiagen, Düsseldorf, Germany) and represented as genome equivalent per milliliter (GE/ml). […] After incubation at 37 °C for 4 hours, cells were washed repeatedly with ice-cold PBS. Viral DNA was prepared from cell lysate with DNeasy Blood Kit (Qiagen) and quantified using real-time PCR with primers 5′-[…] -3′ and 5′-[…] -3′."}, "HBV infection of PTH [7]": {"system": "HBV infection of PTH", "protocol": "as §7"}, "HBV attachment to PMH [8]": {"system": "HBV attachment to PMH", "test": "HBV attachment to PMH (immunofluorescent staining of cell-bound HBsAg)", "assay_type": "cell-based, Hepatitis B virus", "details": "1 μM; immunofluorescence", "method": "as §4\nas §3, with “For detection of HBV attached to PMH and HepG2 cells, cells were stained with a mouse monoclonal anti-HBsAg (1:1000 dilution, Dako) followed by Alexa Fluor 488 goat anti-mouse IgG (H+L) (1:1000 dilution, Life Technologies). Cells were examined under a confocal microscope (Leica Biosystems).” left out"}, "PHH": {"system": "PHH", "details": "0.05 nM to 500 μM; 24 h; CellTiter-Glo", "protocol": "PHH and PTH were seeded into collagen-coated 96-well plates at 5 × 10^4 cells per well."}, "[9]": {"system": "HBV attachment to HepG2 cells", "test": "HBV attachment to HepG2 cells", "assay_type": "cell-based, Hepatitis B virus", "details": "real-time PCR and immunofluorescent staining of HBsAg; viruses pre-incubated with 4B10 0.1 nM, 10 nM or 1 μM", "method": "as §4\nas §3, with “For detection of HBV attached to PMH and HepG2 cells, cells were stained with a mouse monoclonal anti-HBsAg (1:1000 dilution, Dako) followed by Alexa Fluor 488 goat anti-mouse IgG (H+L) (1:1000 dilution, Life Technologies). Cells were examined under a confocal microscope (Leica Biosystems).” left out"}, "[10]": {"system": "binding of preS1/2-48^myr-FITC to PMH", "test": "Inhibition of preS1/2-48^myr-FITC binding to PMH", "assay_type": "cell-based, mouse (C57BL/6)", "details": "0.5 μM preS1/2-48^myr-FITC, 100 μM peptide (200-fold molar excess), 4 h at 37 °C; confocal microscopy", "method": "PMH and HepG2 cells were seeded into 12-well plates at a density of 1 × 10^5 cells per well and cultured in WEM and DMEM without FBS respectively. […] Cell nuclei were stained with DAPI (4′6′-diamidino-2-phenylindole) (Sangon, Shanghai, China) for 10 minutes at room temperature. Cells were examined using a confocal microscope (Leica Biosystems, Germany)."}, "[11]": {"details": "PTH, 4B10 0.01-100 nM or LA-20 100 nM, ELISA"}}, "note": "pIC50: −log10 of the molar value. Where two headings read alike, the source gives them in different places. Where no end group is shown, it is not given here."}
{"sequence": "LRNIRLRNIRLRNIRLRNIR [4B10]", "values": [{"measurement": "HBV-binding activity", "setting": "HBV particles", "value": "showed the highest binding activity"}, {"measurement": "inhibitory effect on infection of HIV-1", "setting": "HIV-1", "value": "no inhibitory effect"}, {"measurement": "post-infection HBcAg expression", "setting": "HBV infection of PTH [1]", "value": "dose-dependent decrease in post-infection HBcAg expression"}, {"measurement": "cytotoxic effect on PMH", "setting": "PMH", "value": "No notable cytotoxic effect"}, {"measurement": "cytotoxic effect on HepG2 cells", "setting": "HepG2 cells", "value": "No notable cytotoxic effect"}, {"measurement": "inhibition of HBV infection (in words)", "setting": "HBV infection of PHH [2]; PHH, 4B10 0.05-500 nM", "value": "Dose-dependent and efficient inhibition of HBV infection"}, {"measurement": "inhibition of HBV infection of primary human hepatocytes", "setting": "HBV infection of PHH [2]; abstract", "value": "low nanomolar concentrations"}, {"measurement": "pIC50", "setting": "HBV infection of PHH [2]; read-out: IC50 based on HBeAg measurement, PHH", "value": "8.30 to 9.30"}, {"measurement": "pIC50", "setting": "HBV infection of PHH [2]; read-out: IC50 based on HBsAg measurement, PHH", "value": "9.30 to 10.30"}, {"measurement": "inhibition of infection by genotype B and C viruses", "setting": "HBV infection of PHH [2]; viruses from HBV-infected patients", "value": "could inhibit the infection of genotype B and C viruses"}, {"measurement": "binding to primary hepatocytes", "setting": "[3]", "value": "does not bind"}, {"measurement": "preS1-binding activity (preS1/2-48^myr-FITC)", "setting": "preS1/2-48^myr", "value": "showed the highest binding activity"}, {"measurement": "inhibitory effect on infection of VSV-G pseudotyped lentivirus", "setting": "[4]", "value": "no inhibitory effect"}, {"measurement": "post-infection HBcAg expression", "setting": "HBV infection of PHH [5]", "value": "dose-dependent decrease in post-infection HBcAg expression"}, {"measurement": "reduction of PMH-associated virions", "setting": "HBV attachment to PMH [6]; 0.1 nM", "value": 39, "unit": "%"}, {"measurement": "reduction of PMH-associated virions", "setting": "HBV attachment to PMH [6]; 10 nM", "value": 56, "unit": "%"}, {"measurement": "reduction of PMH-associated virions", "setting": "HBV attachment to PMH [6]; 1 μM", "value": 74, "unit": "%"}, {"measurement": "inhibition of HBV infection of primary tupaia hepatocytes", "setting": "HBV infection of PTH [7]", "value": "low nanomolar concentrations"}, {"measurement": "effect on post-infection HBeAg expression", "setting": "HBV infection of PTH [7]; [11]", "value": "dose-dependent decrease"}, {"measurement": "effect on post-infection HBsAg expression", "setting": "HBV infection of PTH [7]; [11]", "value": "dose-dependent decrease"}, {"measurement": "pIC50", "setting": "HBV infection of PTH [7]; infection of PTH", "value": "9.00 to 10.00"}, {"measurement": "inhibition of infection by genotype D viruses", "setting": "HBV infection of PTH [7]; viruses derived from HepAD38 cells", "value": "could inhibit the infection of genotype B and C viruses from HBV-infected patients as well as genotype D viruses"}, {"measurement": "HBV attachment to PMH (HBsAg staining)", "setting": "HBV attachment to PMH [8]", "value": "markedly reduced"}, {"measurement": "cytotoxic effect on PHH", "setting": "PHH", "value": "No cytotoxicity was observed"}, {"measurement": "HBV attachment to HepG2 cells", "setting": "[9]", "value": "inhibited HBV attachment to HepG2 cells"}, {"measurement": "inhibition of binding of preS1/2-48^myr-FITC to PMH", "setting": "[10]", "value": "completely blocked"}]}
